# Results published in patent US20260183429A1, “COMPOSITIONS FOR MODULATING ACETYLATED TUBULIN LEVELS AND METHODS THEREOF” (THE TRUSTEES OF COLUMBIA UNIVERSITY IN THE CITY OF NEW YORK, priority 2023, published 2026).
# Marks after values point to notes of the source that are not given here.
# Columns and labels:
# Format in all cases: cell-based, mouse
# [1] = test system: MFN2 KO MEFs; experiment: MAM-dependent phospholipid synthesis, 3H-Ser incorporation into PtdSer and PtdEtn; settings: TSA 10 nM, 6 h, after 2 h and 4 h
# Experimental: Both mitochondria and ER play key roles in the synthesis of phosphatidylserine (PtdSer), phosphatidylethanolamine (PtdEtn), and phosphatidylcholine (PtdCho). PtdSer is synthesized in the MAM; it then translocates to mitochondria, where it is converted to PtdEtn; PtdEtn then translocates back to the MAM, to generate PtdCho. To test the effect of MFN2 on phospholipid synthesis mediated by MAM, WT and MFN2 KO MEF cells were incubated for 2 h with serum-free medium to ensure removal of exogenous lipids. The medium was then replaced with MEM containing […] of 3H-serine for 2, 4 and 6 h. The cells were washed and collected in DPBS, pelleted at 2500×g for 5 min at 4° C., and resuspended in 0.5 ml water, removing a small aliquot for protein quantification. Lipid extraction was done by the Bligh and Dyer method. Briefly, three volumes of chloroform/methanol 2:1 were added to the samples and vortexed. […] The spots corresponding to the relevant phospholipids (identified using co-migrating standards) were scraped and counted in a scintillation counter (Packard Tri-Carb 2900TR). […] Therefore, to directly test the effect of MFN2 mutations on phospholipid synthesis mediated by MAM, control and MFN2 KO fibroblasts were incubated in medium containing 3H-serine and measured the incorporation of the label into newly synthesized 3H-PtdSer and 3H-PtdEtn after 2 and 4 h.
# [2] = test system: MFN2 KO MEFs; experiment: Mitochondria fusion by mitoDendra photoconversion in MFN2 KO MEFs; settings: MFN2 KO cells; TSA 10 nM, 6 h
# Description: Dendra2 photoconversion and imaging utilized the protocol from Evrogen. Images were acquired with an Olympus spinning disk microscope EC-Plan-Neofluar 40X/1.3 oil. Z-stack acquisitions over-sampled each optical slice twice, and the Zen 2009 image analysis software was used for maximum z-projections. The 488 nm laser line and the 561 nm laser excited Dendra2 in the unconverted state and photo-converted state, respectively. To photo-switch Dendra2, a region was illuminated with the 405 nm line (4% laser power) for 90 bleaching iterations. The corrected total fluorescence intensity of both the channels was calculated using ImageJ and colocalization percentage was calculated.
# [3] = test system: MFN2 KO MEFs; experiment: MT plus end dynamics, GFP-tubulin live imaging, MFN2 KO MEFs
# Experimental: (§1) Fibroblasts were transfected with pMSCV-puro-tagGFP-C4 α-tubulin plasmid to generate a green fluorescent protein (GFP)-tubulin stably expressing cell line. Live imaging of MT dynamics in transfected cells was performed at 37° C. and 5% CO2 for 5 min (5 s/f) with a 100×
# (§2) PlanApo objective (numerical aperture 1.45) and an iXon X3 CCD camera (Andor, Belfast, United Kingdom) on a Nikon Eclipse Ti microscope controlled by Nikon's NIS-Elements software (Nikon, Tokyo, Japan). Movies were analyzed by ImageJ using a manual tracking plug-in. Dynamicity is calculated by dividing the sum of growth and shrinkage distances by MT lifetime.
# [4] = test system: acetylated tubulin in MFN2 KO MEFs; experiment: Acetylated tubulin levels by immunoblot and immunofluorescence in MFN2 KO MEFs; settings: MFN2 KO cells; 10 nM TSA, 6 h and 12 h (FIGS. 2A-2D)
# Experimental: (§3) Cells were fixed in 4% PFA for 15 min and permeabilized with 0.1% Triton X-100 for 5 min at R.T. For the MT cytoskeleton, cells were fixed in ice cold MetOH for 10′ prior to rehydration in PBS buffer. Cells were then washed in PBS, blocked in 2% FBS and 2% BSA in PBS for 1 h, stained with primary antibodies overnight at 4° C. followed by secondary antibodies for 1 h. Mounted samples were observed using a Zeiss LSM 800 confocal microscope using a 63× objective (Plan-Apochromat, NA 1.4). Z stack (0.5 um) images were acquired. To calculate the Mitotic Index as percentage, the number of cells in mitosis were divided by the total number of cells multiplied by 100. […] ROIs were selected in both channels to calculate mean fluorescence and integrated density prior to calculating corrected total fluorescence intensity (CTCF=Integrated Density−(Area of selected cell*Mean fluorescence of background readings). For measuring MT associated MB11 intensity, an ROI was selected along individual tyrosinated MTs using ImageJ and GTP tubulin (hMB11) pixel intensity was calculated along the tyrosinated tubulin signal and corrected by subtracting out background signal fluorescence intensity.
# (§4) Cells were lysed in Laemmli sample buffer and boiled at 96° C. for 5 min. […] Image acquisition was performed with an Odyssey imaging system (LI-COR Biosciences, NE) and analyzed with Odyssey software.
# [5] = test system: Iqgap1 KO MEFs; experiment: Mitochondria dynamics in Iqgap1 KO MEFs; settings: 10 nM TSA, 6 h, compared with TTL silencing
# Experimental: (§5) Mitochondria were labeled using MitoTracker™ Red CMROX according to manufacturer protocol (ThermoFisher Scientific) and detected by epifluorescence microscope equipped with 60× objective lens (Olympus IX81) and a monochrome CCD camera (Sensicam QE, Cooke Corporation). Aspect ratio (length/width) were measured in unedited image files by using Image J/FIJI. Brightness and contrast of the images were adjusted to optimize visualization of the mitochondrial segments and to reduce background noise. After selecting an individual cell, the Analyze Particles function (pixel size 10-infinity; circularity 0.00-1.00) was used to count the number of noncontiguous, discrete particles, and describe their shape. For mitochondrial distribution and displacement velocity mitochondria were live imaged for 3 min at 2 sec/frame at 37° C. A customized Mitoplot software was used for analyzing mitochondrial distribution by defining the center of cell and drawing a line towards periphery. Manual tracking plug-in in ImageJ/FIJI was used to analyze mitochondrial displacement velocity by selecting individual mitochondria.
# [6] = test system: MFN2 KO MEFs; experiment: Lipidomics of lipid classes in MFN2 KO MEFs; settings: MFN2 KO cells; TSA 10 nM
# [7] = test system: WT MEFs; experiment: MT plus end dynamics, GFP-tubulin live imaging, WT MEFs; settings: WT + TSA
# Experimental: as §1, §2
# [8] = test system: Iqgap1 KO MEFs; experiment: MT plus end dynamics, GFP-tubulin live imaging, Iqgap1 KO MEFs; settings: Iqgap1 KO + TSA
# Experimental: as §1, §2
# [9] = test system: acetylated tubulin in Iqgap1 KO MEFs; experiment: Acetylated tubulin levels in Iqgap1 KO MEFs; settings: 10 nM TSA, 6 h or 12 h
# Experimental: as §3, §4
# [10] = test system: MFN2 KO MEFs; experiment: Mitochondrial morphology, motility, distribution and association with MTs in MFN2 KO MEFs; settings: MFN2 KO cells
# Experimental: For immunofluorescence staining of the MT cytoskeleton, cells were fixed in ice cold MetOH for 10′ prior to rehydration in PBS buffer. For all other staining, cells were fixed in 4% PFA for 15 min and permeabilized with 0.1% Triton X-100 for 5 min at R.T. Cells were then washed in PBS, blocked in 2% FBS and 2% BSA in PBS for 1 h, stained with primary antibodies overnight at 4° C. followed by secondary antibodies for 1 h. Mounted samples were observed using a Zeiss LSM 800 confocal microscope equipped with Airyscan module, using a 63× objective (Plan-Apochromat, NA 1.4). Z stack (0.2 um) images were acquired and processed using Zen Blue 2.1 software prior to analysis by ImageJ software. For 3D reconstruction, mitochondrial networks in individual cells were quantified by analyzing the network volume using Imaris software (Bitplane, Concord, MA). For line scan analysis, a line was drawn, and intensity was measured represented as gray values. The amount of fluorescence of the colocalizing pixels in each channel (Mander's coefficient) was calculated using ImageJ. The file was opened, and channels were split. Each select file was changed to 8-bit greyscale and max projection images was generated. Colocalization was assessed by Plugin co-localization finder. To calculate number of ATAT1 foci, each image was converted into an 8-bit greyscale image and ATAT1 signal thresholded until the foci appeared isolated from the background in a binary image. Both channels were then merged into one and the number of foci localizing in the merged stack quantified. To calculate ATAT1 localization with MFN2 on mitochondria, numbers of ATAT1 and MFN2 foci were quantified on each channel individually. Both channels were then merged into one and number of foci in the merged stack analyzed and quantified on mitochondria.
# as §5
structure (smiles),measurement,setting,value
"CC(/C=C/C(=O)NO)=C\[C@@H](C)C(=O)c1ccc(N(C)C)cc1 [TSA, trichostatin A]",MAM-dependent phospholipid synthesis (3H-Ser into 3H-PtdSer and 3H-PtdEtn),[1],failed to normalize
same,mitochondria fusion,[2],completely failed to recover
same,% Growth,[3]; MFN2 KO + TSA,"22.4 ± 0.90^c,y %"
same,% Pause,[3]; MFN2 KO + TSA,"62.13 ± 1.68^c,y %"
same,% Shrinkage,[3]; MFN2 KO + TSA,"16.05 ± 1.42^c,y %"
same,Catastrophe frequency,[3]; MFN2 KO + TSA,0.05 ± 0.006 s⁻¹
same,Growth rate,[3]; MFN2 KO + TSA,"0.08 ± 0.005^a,y μm/s"
same,MT dynamicity,[3]; MFN2 KO + TSA,"4.858 ± 0.46^c,y μm/min"
same,MT lifetime,[3]; MFN2 KO + TSA,60.25 ± 1.43 ^ s
same,Rescue freq.,[3]; MFN2 KO + TSA,0.09 ± 0.004 s⁻¹
same,Shrinkage rate,[3]; MFN2 KO + TSA,"0.08 ± 0.005^a,y μm/s"
same,MT dynamics,[3]; MFN2 KO cells + TSA (Table 3),normalized
same,acetylated tubulin levels,[4],normalized
same,mitochondria dynamics,[5],rescue of mitochondria dynamics
same,"changes in sphingomyelin, cholesterol, cholesteryl esters and ceramide levels",[6],rescued
same,% Growth,[7]; Table 3,"20.04 ± 1.28^c,x %"
same,% Pause,[7]; Table 3,"63.5 ± 0.64^c,x %"
same,% Shrinkage,[7]; Table 3,"18.25 ± 1.37^c,x %"
same,Catastrophe frequency,[7]; Table 3,0.05 ± 0.004 s⁻¹
same,Growth rate,[7]; Table 3,0.04 ± 0.007 μm/s
same,MT lifetime,[7]; Table 3,56.5 ± 3.66 s
same,Rescue freq.,[7]; Table 3,0.07 ± 0.006 s⁻¹
same,Shrinkage rate,[7]; Table 3,0.07 ± 0.008 μm/s
same,% Growth,[7]; Table 4 (Iqgap1 series),"23.75 ± 0.85^b,x %"
same,% Pause,[7]; Table 4 (Iqgap1 series),"50 ± 2.48^b,x %"
same,% Shrinkage,[7]; Table 4 (Iqgap1 series),27.25 ± 3.19%
same,Catastrophe frequency,[7]; Table 4 (Iqgap1 series),0.06 ± 0.003 s⁻¹
same,Growth rate,[7]; Table 4 (Iqgap1 series),0.04 ± 0.004 μm/s
same,MT dynamicity,[7]; Table 4 (Iqgap1 series),"3.32 ± 0.24^a,x μm/min"
same,MT lifetime,[7]; Table 4 (Iqgap1 series),49.5 ± 2.32 s
same,Rescue freq.,[7]; Table 4 (Iqgap1 series),0.07 ± 0.007 s⁻¹
same,Shrinkage rate,[7]; Table 4 (Iqgap1 series),0.03 ± 0.004 μm/s
same,% Growth,[8],"25.25 ± 1.54^b,y %"
same,% Pause,[8],"51.75 ± 1.10^b,y %"
same,% Shrinkage,[8],"22.5 ± 0.86^b,y %"
same,Catastrophe frequency,[8],0.06 ± 0.004 s⁻¹
same,Growth rate,[8],"0.095 ± 0.006^a,y μm/s"
same,MT dynamicity,[8],"3.77 ± 0.33^b,y μm/min"
same,MT lifetime,[8],51.25 ± 1.79 s
same,Rescue freq.,[8],0.08 ± 0.006 s⁻¹
same,Shrinkage rate,[8],0.09 ± 0.004 μm/s
same,acetylated tubulin levels,[9],restoration of acetylated tubulin levels
same,co-localization of mitochondria with MTs,"[10]; 10 nM TSA, 6 h (FIGS. 2E, 2F)",restored
same,central and peripheral mitochondrial displacement velocity,"[10]; TSA 10 nM, 6 h",normalized
same,mitochondria distribution,"[10]; TSA 10 nM, 6 h",normalized
same,mitochondria elongated morphology,"[10]; TSA 10 nM, 6 h",partially reestablished
"O=C(CCCCCCC(=O)Nc1ccc([C@H]2O[C@@H](CSc3nc(-c4ccccc4)c(-c4ccccc4)o3)C[C@@H](c3ccc(CO)cc3)O2)cc1)NO [tubacin, Tubacin]","mitochondrial displacement velocity, distribution, aspect ratio and fusion compared with TSA","[10]; tubacin 20 μM, 6 h (FIGS. 3F-3I)",Identical results
